Experimental data: ChEMBL document CHEMBL3244399, “Antifungal agents. 4. Chemical modification of antibiotics from Polyangium cellulosum var. fulvum. Ester and amide analogues of ambruticin” (1979)
Values after ≈ are worked out from the molar mass of the structure shown. Active and inactive are the calls of the source. The calls are words filed in the database; no cut-off is given here.

Tests used:
[1] = test system: Histoplasma capsulatum; assay: Antifungal activity against Histoplasma capsulatum assessed as growth inhibition by standard broth dilution method; type: functional
[2] = Antifungal activity against Microsporum fulvum assessed as growth inhibition by standard broth dilution method; type: functional; conditions: Arthroderma fulvum
[3] = test system: Streptococcus pyogenes; assay: Antifungal activity against Streptococcus pyogenes assessed as growth inhibition by standard broth dilution method; type: functional
[4] = test system: Candida albicans; assay: Antifungal activity against Candida albicans assessed as growth inhibition by standard broth dilution method; type: functional, organism-based

| Structure (SMILES) | MIC [1] | MIC [2] | MIC [3] | inhibition [4] |
| --- | --- | --- | --- | --- |
| CCCCNC(=O)C[C@@H]1C[C@H](O)[C@@H](O)[C@H](/C=C/[C@H]2[C@H](C)[C@@H]2/C=C/[C@@H](C)/C=C(\C)[C@H]2CC=C(C)[C@@H](CC)O2)O1 | 1.56 µg/mL (≈ 2.94 µM) | 6.25 µg/mL (≈ 11.8 µM) | 1.56 µg/mL (≈ 2.94 µM) | inactive |
| CC[C@H]1O[C@@H](/C(C)=C/[C@H](C)/C=C/[C@H]2[C@@H](C)[C@@H]2/C=C/[C@@H]2O[C@H](CC(=O)NCc3ccccc3)C[C@H](OC(C)=O)[C@H]2OC(C)=O)CC=C1C | – | – | – | inactive |
| CC[C@H]1O[C@@H](/C(C)=C/[C@H](C)/C=C/[C@H]2[C@@H](C)[C@@H]2/C=C/[C@@H]2O[C@H](CC(=O)OC)C[C@@H]3OC(=O)O[C@@H]23)CC=C1C (relative stereo) | 0.78 µg/mL (≈ 1.52 µM) | 0.39 µg/mL (≈ 0.758 µM) | inactive | inactive |
| CC[C@H]1O[C@@H](/C(C)=C/[C@H](C)/C=C/[C@H]2[C@@H](C)[C@@H]2/C=C/[C@@H]2O[C@H](CC(=O)N3CCCC3)C[C@H](O)[C@H]2O)CC=C1C | 0.39 µg/mL (≈ 0.739 µM) | 0.78 µg/mL (≈ 1.48 µM) | 3.12 µg/mL (≈ 5.91 µM) | inactive |
| CC[C@H]1O[C@@H](/C(C)=C/[C@H](C)/C=C/[C@H]2[C@@H](C)[C@@H]2/C=C/[C@@H]2O[C@H](CC(=O)O)C[C@H](OC(C)=O)[C@H]2OC(C)=O)CC=C1C (relative stereo) | 3.12 µg/mL (≈ 5.58 µM) | 3.12 µg/mL (≈ 5.58 µM) | 6.25 µg/mL (≈ 11.2 µM) | inactive |
| CC[C@H]1O[C@@H](/C(C)=C/[C@H](C)/C=C/[C@H]2[C@@H](C)[C@@H]2/C=C/[C@@H]2O[C@H](CC(=O)N3CCCCC3)C[C@H](O)[C@H]2O)CC=C1C | 3.12 µg/mL (≈ 5.76 µM) | 0.78 µg/mL (≈ 1.44 µM) | 1.56 µg/mL (≈ 2.88 µM) | inactive |
| CC[C@H]1O[C@@H](/C(C)=C/[C@H](C)/C=C/[C@H]2[C@@H](C)[C@@H]2/C=C/[C@@H]2O[C@H](CC(=O)OC)C[C@H](OC=O)[C@H]2OC=O)CC=C1C | 3.12 µg/mL (≈ 5.73 µM) | 12.5 µg/mL (≈ 22.9 µM) | inactive | inactive |
| CCCC(=O)O[C@H]1[C@H](/C=C/[C@H]2[C@H](C)[C@@H]2/C=C/[C@@H](C)/C=C(\C)[C@H]2CC=C(C)[C@@H](CC)O2)O[C@H](CC(=O)O)C[C@@H]1OC(=O)CCC | 12.5 µg/mL (≈ 20.3 µM) | > 50 µg/mL | 6.25 µg/mL (≈ 10.2 µM) | inactive |
| CC[C@H]1O[C@@H](/C(C)=C/[C@H](C)/C=C/[C@H]2[C@@H](C)[C@@H]2/C=C/[C@@H]2O[C@H](CC(=O)N3CCCCC3)C[C@H](OC(C)=O)[C@H]2OC(C)=O)CC=C1C | – | – | – | inactive |
| CC[C@H]1O[C@@H](/C(C)=C/[C@H](C)/C=C/[C@H]2[C@@H](C)[C@@H]2/C=C/[C@@H]2O[C@H](CC(=O)O)C[C@H](OC=O)[C@H]2OC=O)CC=C1C | 1.56 µg/mL (≈ 2.94 µM) | 1.56 µg/mL (≈ 2.94 µM) | 25 µg/mL (≈ 47.1 µM) | inactive |
| CC[C@H]1O[C@@H](/C(C)=C/[C@H](C)/C=C/[C@H]2[C@@H](C)[C@@H]2/C=C/[C@@H]2O[C@H](CC(=O)OC)C[C@H](OC(C)=O)[C@H]2OC(C)=O)CC=C1C (relative stereo) | 12.5 µg/mL (≈ 21.8 µM) | > 50 µg/mL | inactive | inactive |
| CC[C@H]1O[C@@H](/C(C)=C/[C@H](C)/C=C/[C@H]2[C@@H](C)[C@@H]2/C=C/[C@@H]2O[C@H](CC(=O)N(C(=O)NC3CCCCC3)C3CCCCC3)C[C@H](OC(C)=O)[C@H]2OC(C)=O)CC=C1C | > 50 µg/mL | > 50 µg/mL | inactive | inactive |
| CC[C@H]1O[C@@H](/C(C)=C/[C@H](C)/C=C/[C@H]2[C@@H](C)[C@@H]2/C=C/[C@@H]2O[C@H](CC(=O)NCc3ccccc3)C[C@H](O)[C@H]2O)CC=C1C | 6.25 µg/mL (≈ 11.1 µM) | > 50 µg/mL | 3.12 µg/mL (≈ 5.53 µM) | inactive |
| CC[C@H]1O[C@@H](/C(C)=C/[C@H](C)/C=C/[C@H]2[C@@H](C)[C@@H]2/C=C/[C@@H]2O[C@H](CC(=O)OC)C[C@H](O)[C@H]2O)CC=C1C (relative stereo) | 0.39 µg/mL (≈ 0.798 µM) | 0.39 µg/mL (≈ 0.798 µM) | inactive | inactive |
| CC[C@H]1O[C@@H](/C(C)=C/[C@H](C)/C=C/[C@H]2[C@@H](C)[C@@H]2/C=C/[C@@H]2O[C@H](CC(=O)OC)C[C@H](OC(=O)Nc3ccc(Cl)cc3)[C@H]2OC(=O)Nc2ccc(Cl)cc2)CC=C1C | 50 µg/mL (≈ 62.8 µM) | > 50 µg/mL | inactive | inactive |
| CC[C@H]1O[C@@H](/C(C)=C/[C@H](C)/C=C/[C@H]2[C@@H](C)[C@@H]2/C=C/[C@@H]2O[C@H](CC(=O)O)C[C@H](O)[C@H]2O)CC=C1C (relative stereo) [AMBRUTICIN] | 0.195 µg/mL (≈ 0.411 µM) | 0.098 µg/mL (≈ 0.206 µM) | 25 µg/mL (≈ 52.7 µM) | inactive |
| CC[C@H]1O[C@@H](/C(C)=C/[C@H](C)/C=C/[C@H]2[C@@H](C)[C@@H]2/C=C/[C@@H]2O[C@H](CC(=O)N3CCCC3)C[C@H](OC(C)=O)[C@H]2OC(C)=O)CC=C1C | 50 µg/mL (≈ 81.7 µM) | > 50 µg/mL | inactive | inactive |
| CC[C@H]1O[C@@H](/C(C)=C/[C@H](C)/C=C/[C@H]2[C@@H](C)[C@@H]2/C=C/[C@@H]2O[C@H](CC(=O)N(C(=O)NC3CCCCC3)C3CCCCC3)C[C@H](O)[C@H]2O)CC=C1C | > 50 µg/mL | > 50 µg/mL | inactive | inactive |
| CC[C@H]1O[C@@H](/C(C)=C/[C@H](C)/C=C/[C@H]2[C@@H](C)[C@@H]2/C=C/[C@@H]2O[C@H](CC(=O)NC3CCCCC3)C[C@H](OC(C)=O)[C@H]2OC(C)=O)CC=C1C | > 50 µg/mL | > 50 µg/mL | inactive | inactive |
| CCC(=O)O[C@H]1[C@H](/C=C/[C@H]2[C@H](C)[C@@H]2/C=C/[C@@H](C)/C=C(\C)[C@H]2CC=C(C)[C@@H](CC)O2)O[C@H](CC(=O)O)C[C@@H]1OC(=O)CC | 6.25 µg/mL (≈ 10.7 µM) | > 50 µg/mL | 6.25 µg/mL (≈ 10.7 µM) | inactive |
| CCCCNC(=O)C[C@@H]1C[C@H](OC(C)=O)[C@@H](OC(C)=O)[C@H](/C=C/[C@H]2[C@H](C)[C@@H]2/C=C/[C@@H](C)/C=C(\C)[C@H]2CC=C(C)[C@@H](CC)O2)O1 | – | – | – | inactive |
| CC[C@H]1O[C@@H](/C(C)=C/[C@H](C)/C=C/[C@H]2[C@@H](C)[C@@H]2/C=C/[C@@H]2O[C@H](CC(=O)NC3CCCCC3)C[C@H](O)[C@H]2O)CC=C1C | 3.12 µg/mL (≈ 5.61 µM) | 25 µg/mL (≈ 45 µM) | – | inactive |
| CC[C@H]1O[C@@H](/C(C)=C/[C@H](C)/C=C/[C@H]2[C@@H](C)[C@@H]2/C=C/[C@@H]2O[C@H](CC(=O)OC)C[C@H](OC(=O)Nc3ccccc3)[C@H]2OC(=O)Nc2ccccc2)CC=C1C | 25 µg/mL (≈ 34.4 µM) | > 50 µg/mL | inactive | inactive |
